From paper PMC11542720, “Modelling of chromatographic and electrophoretic behaviour of imidazoline and alpha adrenergic receptors ligands under different acid-base conditions” (ADMET & DMPK, 2024)
Counter-ions that a name gives are not always drawn. Like-named read-outs stand apart in the source and are kept apart here.

Key:
[1] = Capillary electrophoresis, effective electrophoretic mobility (acetone as EOF marker); assay type: physicochemical; settings: for µeff4.4 / µeff7.4 / µeff9.1: I = 25 mmol/L, 11 kV, 25 °C, three replicates; for µeff7.4: pH 7.4
Method: All experiments were performed using the SpectraPhoresis 500-capillary electrophoresis system (Spectra Physics Analytical, USA) with UV detector. Data were recorded and analyzed using ChromQuest software version 4.0 (Thermo Finnigan, USA).
The separations were performed with an uncoated fused capillary (total length 31.5 cm, 50 μm id, effective length 24 cm, Polymicro Technologies, USA) applying a voltage of 11 kV and at 25 °C. The samples were injected hydrodynamically and detection was performed in the 200-280 nm range. The new capillary was rinsed stepwise with 0.1 M NaOH (15 min), water (10 min) and a running buffer (10 min). Finally, a 10 min high voltage was applied through the background electrolyte-filled capillary to equalize the inner surface, stabilize the electroosmotic flow and ensure good reproducibility of injections from run to run. […] Between runs, the capillary was rinsed with the background electrolyte for 1 minute.
where Lt is the total length of the capillary (cm), Leff is the effective length of the capillary (cm), U is the applied voltage (V), tm is the migration time of the analyte (s) and teof is the migration time of the electroneutral EOF marker acetone (s). The calculated μeff values (μeff4.4, μeff7.4 and μeff9.1) were used as dependent variables in QSMR analysis.

[2] = RP-HPLC retention on XTerra RP18, methanol/buffer; extrapolated retention factor log kw and slope S; assay type: physicochemical; settings: for log kw: intercept, extrapolated to 100 % buffer, methanol/buffer, 25 °C; for S (slope): slope of log k vs methanol volume fraction
Method: All measurements were performed at 25°C with a constant flow rate of 0.8 mL min^-1 and UV detection in the range of 200-280 nm. The injection volume was 20 μL. […] The retention factor k was calculated for each mobile phase composition according to Equation (1):
where tr is the retention time of the tested compound and t0 is the dead volume measured with KNO3 as a non-retentive marker. The values corresponding to 100 % of the buffered eluent (log kw) were determined by extrapolation according to Equation (2):
where log kw is the intercept, S is the slope of the regression line, and φ is the volume fraction of the organic modifier in the mobile phase.
The retention behaviour in HPLC system was monitored by calculating extrapolated retention factors log kw corresponding to pure buffer as mobile phase.

[3] = cited from earlier work
[4] = HPLC, ref 7 (Supplement reference list)

| Compound | µeff4.4 ([1]; pH 4.4) | µeff7.4 [1] | µeff9.1 ([1]; pH 9.1) | log kw ([2]; pH 4.4) | S (slope) ([2]; pH 4.4) | log kw ([2]; pH 7.4) | S (slope) ([2]; pH 7.4) | log kw ([2]; pH 9.1) | S (slope) ([2]; pH 9.1) | μeff9.1 (effective electrophoretic mobility) ([1]; pH 9.1) | μeff4.4 (effective electrophoretic mobility) ([1]; pH 4.4) | pKa experimental [3, 4] | pKa experimental ([3]; spectrophotometric, ref 9 (Supplement reference list)) | pKa experimental ([3]; potentiometric, ref 11 (Supplement reference list)) | pKa experimental ([3]; potentiometric, ref 12 (Supplement reference list)) | pKa experimental ([3]; pH spectrophotometric, ref 13 (Supplement reference list)) |
| --- | --- | --- | --- | --- | --- | --- | --- | --- | --- | --- | --- | --- | --- | --- | --- | --- |
| Cc1nccc2c1[nH]c1ccccc12 [Harman, harmane] | 28.192 ± 0.016 10^-5 cm^2 V^-1 s^-1 | 11.752 ± 0.034 10^-5 cm^2 V^-1 s^-1 | 0.000 ± 0.000 10^-5 cm^2 V^-1 s^-1 | 1.72 ± 0.06 | -3.74 ± 0.18 | 2.76 ± 0.05 | -3.70 ± 0.09 | 2.78 ± 0.06 | -3.75 ± 0.11 |  | 28.19 10^-5 cm^2 / V s | 7.21 |  |  |  |  |
| COc1ccc2c(c1)[nH]c1c(C)nccc12 [Harmine, harmine hydrochloride] | 26.410 ± 0.068 10^-5 cm^2 V^-1 s^-1 | 13.636 ± 0.051 10^-5 cm^2 V^-1 s^-1 | 1.305 ± 0.124 10^-5 cm^2 V^-1 s^-1 | 2.15 ± 0.04 | -4.28 ± 0.11 | 2.88 ± 0.05 | -3.85 ± 0.09 | 2.95 ± 0.07 | -3.97 ± 0.12 |  |  |  | 7.45 (spectrophotometric) [9] |  |  |  |
| CNCCCC12CCC(c3ccccc31)c1ccccc12 [Maprotiline, maprotiline hydrochloride] | 20.559 ± 0.034 10^-5 cm^2 V^-1 s^-1 | 18.696 ± 0.048 10^-5 cm^2 V^-1 s^-1 | 19.402 ± 0.148 10^-5 cm^2 V^-1 s^-1 | 2.90 ± 0.08 | -4.31 ± 0.14 | 2.58 ± 0.12 | -3.18 ± 0.20 | 3.09 ± 0.08 | -4.20 ± 0.14 |  |  |  |  | 10.45 ± 0.02 |  |  |
| CN1CCN2c3ccccc3Cc3ccccc3C2C1 (stereo not drawn) [Mianserin, mianserin hydrochloride] | 22.471 ± 0.004 10^-5 cm^2 V^-1 s^-1 | 12.234 ± 0.109 10^-5 cm^2 V^-1 s^-1 | 0.000 ± 0.000 10^-5 cm^2 V^-1 s^-1 | 2.48 ± 0.03 | -4.24 ± 0.07 | 3.91 ± 0.05 | -4.82 ± 0.08 | 3.92 ± 0.06 | -4.83 ± 0.11 |  |  |  |  |  | 7.40 |  |
| COc1nc(C)nc(Cl)c1N=C1NCCN1 [Moxonidine, moxonidine hydrochloride] | 22.669 ± 0.104 10^-5 cm^2 V^-1 s^-1 | 10.907 ± 0.078 10^-5 cm^2 V^-1 s^-1 | 0.000 ± 0.000 10^-5 cm^2 V^-1 s^-1 | 0.57 ± 0.03 | -3.21± 0.17 | 0.63 ± 0.03 | -2.36 ± 0.10 | 0.75 ± 0.04 | -2.31 ± 0.10 | zero |  | 7.84 |  |  |  |  |

More lines, main results first:

| µeff4.4 ([1]; pH 4.4) | µeff7.4 [1] | µeff9.1 ([1]; pH 9.1) | log kw ([2]; pH 4.4) | S (slope) ([2]; pH 4.4) | log kw ([2]; pH 7.4) | S (slope) ([2]; pH 7.4) | log kw ([2]; pH 9.1) | S (slope) ([2]; pH 9.1) | μeff9.1 (effective electrophoretic mobility) ([1]; pH 9.1) | Compound | μeff4.4 (effective electrophoretic mobility) ([1]; pH 4.4) | pKa experimental [3, 4] | pKa experimental ([3]; spectrophotometric, ref 9 (Supplement reference list)) | pKa experimental ([3]; potentiometric, ref 11 (Supplement reference list)) | pKa experimental ([3]; potentiometric, ref 12 (Supplement reference list)) | pKa experimental ([3]; pH spectrophotometric, ref 13 (Supplement reference list)) |
| --- | --- | --- | --- | --- | --- | --- | --- | --- | --- | --- | --- | --- | --- | --- | --- | --- |
| 26.969 ± 0.032 10^-5 cm^2 V^-1 s^-1 | 23.293 ± 0.020 10^-5 cm^2 V^-1 s^-1 | 6.627 ± 0.102 10^-5 cm^2 V^-1 s^-1 | 0.82 ± 0.01 | -2.66 ± 0.03 | 0.85 ± 0.02 | -1.58 ± 0.04 | 1.53 ± 0.01 | -2.80 ± 0.01 |  | c1ccc2c(c1)OCC(C1=NCCN1)O2 (stereo not drawn) [Idazoxan, idazoxan hydrochloride] |  | 9.04 |  |  |  |  |
| 25.941 ± 0.038 10^-5 cm^2 V^-1 s^-1 | 24.180 ± 0.135 10^-5 cm^2 V^-1 s^-1 | 24.643 ± 0.049 10^-5 cm^2 V^-1 s^-1 | 1.52 ± 0.01 | -3.48 ± 0.04 | 1.52 ± 0.01 | -3.64 ± 0.05 | 1.76 ± 0.01 | -3.50 ± 0.03 |  | c1ccc2c(CC3=NCCN3)cccc2c1 [Naphazoline, naphazoline hydrochloride] |  |  |  |  |  | 10.81 |
